Structures are written as SMILES. Structures can show the parent of a compound that is named as a salt.

The term IC50 denotes the midpoint of a concentration-inhibition curve.

The assay has as its target TrkA (Homo sapiens (Human), UniProt P04629). The experiment in a line: TrkA Omnia Assay. It is filed as biochemical. As to conditions: averaged IC50; 20 nM enzyme, 500 μM ATP, 10 μM peptide substrate. Put shortly:
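Continuous fluorescent kinase read-out (ex 360 nm, em 485 nm) over 70 min, with initial rates fitted to 4- or 5-parameter logistic curves for IC50. Final conditions: 500 μM ATP, 10 μM Omnia Tyr Peptide #4, 20 nM TrkA, MOPS pH 7.5 buffer with MgCl2 and Triton X-100; enzyme and compound preincubated 10 min at ambient temperature.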

Sequence of TrkA (P04629 33-796): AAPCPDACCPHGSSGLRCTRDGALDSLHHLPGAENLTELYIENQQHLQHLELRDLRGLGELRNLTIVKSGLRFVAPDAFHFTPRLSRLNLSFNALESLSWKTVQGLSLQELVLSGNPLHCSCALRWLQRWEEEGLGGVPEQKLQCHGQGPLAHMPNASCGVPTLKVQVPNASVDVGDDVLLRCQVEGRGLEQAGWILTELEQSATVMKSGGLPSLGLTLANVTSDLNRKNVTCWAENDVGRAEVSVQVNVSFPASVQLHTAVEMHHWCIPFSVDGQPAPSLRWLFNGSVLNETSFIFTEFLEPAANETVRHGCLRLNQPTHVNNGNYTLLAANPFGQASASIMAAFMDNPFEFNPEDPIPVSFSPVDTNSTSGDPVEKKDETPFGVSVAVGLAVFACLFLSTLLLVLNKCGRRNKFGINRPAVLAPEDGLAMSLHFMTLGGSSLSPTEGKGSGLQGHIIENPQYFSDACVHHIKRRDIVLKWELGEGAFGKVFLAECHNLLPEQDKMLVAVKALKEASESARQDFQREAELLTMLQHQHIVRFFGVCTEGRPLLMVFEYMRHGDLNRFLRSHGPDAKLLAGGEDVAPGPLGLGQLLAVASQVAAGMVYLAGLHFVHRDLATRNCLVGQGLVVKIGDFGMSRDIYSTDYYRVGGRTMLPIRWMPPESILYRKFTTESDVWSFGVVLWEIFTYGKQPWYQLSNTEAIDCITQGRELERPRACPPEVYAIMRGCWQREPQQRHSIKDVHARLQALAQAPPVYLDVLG

Turning to `COCCN1C[C@@H](NC(=O)Nc2c(Cl)c(-c3c(C)noc3C)nn2-c2ccccc2)[C@H](c2ccc(F)c(F)c2)C1` [Example 571, 1-(4-chloro-3-(3,5-dimethylisoxazol-4-yl)-1-phenyl-1H-pyrazol-5-yl)-3-((3S,4R)-4-(3,4-difluorophenyl)-1-(2-methoxyethyl)pyrrolidin-3-yl)urea], the IC50 was less than 100 nM.

On to `C[C@@H]1C(NC(=O)Nc2c3c(nn2-c2ccccc2)CCC3)[C@H](c2ccccc2)CN1CC(F)(F)F` (stereo partly drawn) [Example 273, (R,S)1-((2α,3β,4α)-2-methyl-4-phenyl-1-(2,2,2-trifluoroethyl)pyrrolidin-3-yl)-3-(2-phenyl-2,4,5,6-tetrahydrocyclopenta[c]pyrazol-3-yl)urea], for which the IC50 fell in the range of 100 to 1000 nM.

As to `COCCN1C[C@@H](NC(=O)Nc2c(Cl)c(OC[C@@H](C)O)nn2-c2ccccc2)[C@H](c2ccc(F)cc2)C1` [Example 374, 1-(4-chloro-3-((R)-2-hydroxypropoxy)-1-phenyl-1H-pyrazol-5-yl)-3-((3S,4R)-4-(4-fluorophenyl)-1-(2-methoxyethyl)pyrrolidin-3-yl)urea], the IC50 was less than 100 nM.

`CCOc1nn(-c2ccccc2)c(NC(=O)N[C@@H]2CN(c3cc[nH]n3)C[C@H]2c2cc(F)cc(F)c2)c1C` [Example 218, 1-((3S,4R)-4-(3,5-difluorophenyvl)-1-(1H-pyrazol-3-yl)pyrrolidin-3-yl)-3-(3-ethoxy-4-methyl-1-phenyl-1H-pyrazol-5-yl)urea] came in with an IC50 of less than 100 nM.

`CCOC(=O)c1cnn(-c2ccccc2)c1NC(=O)N[C@@H]1CN(CCOC)C[C@H]1c1ccc(F)c(F)c1` [Example 154, ethyl 5-(3-((3S,4R)-4-(3,4-difluorophenyl)-1-(2-methoxyethyl)pyrrolidin-3-yl)ureido)-1-phenyl-1H-pyrazole-4-carboxylate] came in with an IC50 of 1000 to 10000 nM.

Take `COCCN1C[C@@H](NC(=O)Nc2c3c(nn2-c2ccccc2)CNC3)[C@H](c2ccccc2)C1` [Example 158, 1-((3S,4R)-1-(2-methoxyethyl)-4-phenylpyrrolidin-3-yl)-3-(2-phenyl-2,4,5,6-tetrahydropyrrolo[3,4-c]pyrazol-3-yl)urea dihydrochloride]: the IC50 was in the range of 1000 to 10000 nM.

`COCCN1C[C@@H](NC(=O)Nc2c3c(nn2-c2ccccc2)COC3)[C@H](c2cc(F)cc(F)c2)C1` [Example 88, 1-((3S,4R)-4-(3,5-difluoro-phenyl)-1-(2-methoxyethyl)pyrrolidin-3-yl)-3-(2-phenyl-4,6-dihydro-2H-furo[3,4-c]pyrazol-3-yl) urea] came in with an IC50 of less than 100 nM.

`COCCN1C[C@@H](NC(=O)Nc2c(C)c(-c3ccn(C)n3)nn2-c2ccccc2)[C@H](c2ccc(F)c(F)c2)C1` [Example 491, 1-((3S,4R)-4-(3,4-difluorophenyl)-1-(2-methoxyethyl)pyrrolidin-3-yl)-3-(1′,4-dimethyl-1-phenyl-1H,1′H-[3,3′-bipyrazol]-5-yl)urea] gave a 50% inhibitory concentration (IC50) of less than 100 nM.

The compound `COCCN1C[C@@H](NC(=O)Nc2c(C)c(OC[C@@H]3COC(C)(C)O3)nn2-c2ccccc2)[C@H](c2cc(F)cc(F)c2)C1` [Example 392, 1-((3S,4R)-4-(3,5-difluorophenyl)-1-(2-methoxyethyl)pyrrolidin-3-yl)-3-(3-(((R)-2,2-dimethyl-1,3-dioxolan-4-yl)methoxy)-4-methyl-1-phenyl-1H-pyrazol-5-yl)urea] had an IC50 of less than 100 nM.

For `COCCN1C[C@@H](NC(=O)Nc2c3c(nn2-c2ccccc2)CCCC3)[C@H](c2ccccc2)C1` (relative stereo) [Example 26, 1-(trans-1-(2-methoxyethyl)-4-phenylpyrrolidin-3-yl)-3-(2-phenyl-4,5,6,7-tetrahydro-2H-indazol-3-yl)urea], the 50% inhibitory concentration (IC50) was less than 100 nM.

Compound `CCNC(=O)COc1nn(-c2ccccc2)c(NC(=O)N[C@@H]2CN(CCOC)C[C@H]2c2ccc(F)c(F)c2)c1C` [Example 541, 2-((5-(3-((3S,4R)-4-(3,4-difluorophenyl)-1-(2-methoxyethyl)pyrrolidin-3-yl)ureido)-4-methyl-1-phenyl-1H-pyrazol-3-yl)oxy)-N-ethylacetamide] gave a concentration for half-maximal inhibition (IC50) of less than 100 nM.

In the case of `O=C(Nc1c2c(nn1-c1ccccc1)CCC2)N[C@@H]1CN(CCC(F)(F)C(F)(F)F)C[C@H]1c1ccccc1` [Example 192, 1-((trans)-1-(3,3,4,4,4-pentafluorobutyl)-4-phenlpyrrrolidin-3-yl)-3-(2-phenyl-2,4,5,6-tetrahydrocyclopenta[c]pyrazol-3-yl)urea], the IC50 lay within 100 to 1000 nM.

As for `CCn1cc(-c2nn(-c3ccccc3)c(NC(=O)N[C@@H]3CN(CCOC)C[C@H]3c3cccc(F)c3)c2C)cn1` [Example 530, 1-(1′-ethyl-4-methyl-1-phenyl-1H,1′H-[3,4′-bipyrazol]-5-yl)-3-((3S,4R)-4-(3-fluorophenyl)-1-(2-methoxyethyl)pyrrolidin-3-yl)urea], the IC50 is less than 100 nM.

`COCCN1C[C@@H](NC(=O)Nc2c(Cl)c(-c3ccccc3)nn2C)[C@H](c2ccc(F)c(F)c2)C1` [Example 67, 1-(4-chloro-1-methyl-3-phenyl-1H-pyrazol-5-yl)-3-((3S,4R)-4-(3,4-difluorophenyl)-1-(2-methoxyethyl)pyrrolidin-3-yl)urea]: the IC50 was 100 to 1000 nM.

As for `COCCN1C[C@@H](NC(=O)Nc2c(C)c(OC[C@H](O)COC)nn2-c2ccccc2)[C@H](c2cc(F)c(F)c(F)c2)C1` [Example 565, 1-(3-((R)-2-hydroxy-3-methoxypropoxy)-4-methyl-1-phenyl-1H-pyrazol-5-yl)-3-((3S,4R)-1-(2-methoxyethyl)-4-(3,4,5-trifluorophenyl)pyrrolidin-3-yl)urea], the IC50 is less than 100 nM.

On to `COCCN1C[C@@H](NC(=O)Nc2cc(-c3ccc(C(N)=O)cc3)nn2C)[C@H](c2ccc(F)c(F)c2)C1` [Example 162, 4-(5-(3-((3S,4R)-4-(3,4-difluorophenyl)-1-(2-methoxyethyl)pyrrolidin-3-yl)ureido)-1-methyl-1H-pyrazol-3-yl)benzamide], for which the IC50 is less than 100 nM.

Compound `COCCN1C[C@@H](NC(=O)Nc2cc(COC3CCNCC3)nn2-c2ccccc2)[C@H](c2ccc(F)c(F)c2)C1` [Example 589, 1-((3S,4R)-4-(3,4-difluorophenyl)-1-(2-methoxyethyl)pyrrolidin-3-yl)-3-(1-phenyl-3-((piperidin-4-yloxy)methyl)-1H-pyrazol-5-yl)urea dihydrochloride] returned an IC50 of 100 to 1000 nM.

As for `COCCN1C[C@@H](NC(=O)Nc2c(C)c(COC)nn2-c2ccccc2)[C@H](c2cc(F)cc(F)c2)C1` [Example 124, 1-((3S,4R)-4-(3,5-difluorophenyl)-1-(2-methoxyethyl)pyrrolidin-3-yl)-3-(3-(methoxy-methyl)-4-methyl-1-phenyl-1H-pyrazol-5-yl)urea], the IC50 is less than 100 nM.

As for `COCCN1C[C@@H](NC(=O)Nc2c(Br)c(-c3cnn(C)c3)nn2-c2ccccc2)[C@H](c2cc(F)cc(F)c2)C1` [Example 419, 1-(4-bromo-1′-methyl-1-phenyl-1H,1′H-[3,4′-bipyrazol]-5-yl)-3-((3S,4R)-4-(3,5-difluorophenyl)-1-(2-methoxyethyl)pyrrolidin-3-yl)urea], the IC50 is less than 100 nM.

`COCCN1C[C@@H](NC(=O)Nc2c(Br)c(-c3ccccc3)nn2-c2ccccc2)[C@H](c2cncc(F)c2)C1` (relative stereo) [Example 435, 1-(4-bromo-1,3-diphenyl-1H-pyrazol-5-yl)-3-(trans-4-(5-fluoropyridin-3-yl)-1-(2-methoxyethyl)pyrrolidin-3-yl)urea] came in with an IC50 of less than 100 nM.

(Values after patent US10323022B2, “Pyrrolidinyl urea, pyrrolidinyl thiourea and pyrrolidinyl guanidine compounds as TrkA kinase inhibitors” (Array BioPharma Inc., priority 2011, dated 2019).)
